11 molecules from ChEMBL document CHEMBL1146577, “Sulfemodin 8-O-beta-D-glucoside, a new sulfated anthraquinone glycoside, and antioxidant phenolic compounds from Rheum emodi” (J Nat Prod, 2003) can be followed below.

The experiment relates to Radical scavenging activity. Briefly: Antioxidant activity assessed as DPPH radical scavenging activity. It counts as functional. (In general: Loss of DPPH colour is used to gauge radical scavenging.)

Structures are written as SMILES. Converted amounts (≈) assume the structure as drawn.

Broadly, the IC50 is the concentration that gives 50% inhibition. On to `COc1cc(O[C@@H]2O[C@H](CO)[C@@H](O)[C@H](O)[C@H]2O)c2c(O)c(C(C)=O)c(C)cc2c1`, for which the IC50 was 18.5 µg/mL (≈ 45.3 µM). Consider `COc1cc(O)c2c(c1)C(=O)c1cc(C)cc(O[C@@H]3O[C@H](CO)[C@@H](O)[C@H](O)[C@H]3O)c1C2=O`, for which the IC50 is > 100 µg/mL. In the case of `Cc1cc(O[C@@H]2O[C@H](CO)[C@@H](O)[C@H](O)[C@H]2O)c2c(c1)C(=O)c1cc(O)cc(O)c1C2=O` it was > 100 µg/mL; in that of `Oc1cc(O)c2c(c1)O[C@H](c1ccc(O)c(O)c1)[C@H](O)C2` [(-)-EPICATECHIN], 1.7 µg/mL (≈ 5.86 µM); in that of `O=C1O[C@H]([C@@H](O)CO)C(O)=C1O` [ASCORBIC ACID], 3.9 µg/mL (≈ 22.1 µM). For `COc1cc(O)cc2c1C(=O)C(O)(Cc1ccc(O)cc1)O2` (stereo unspecified) [CARPUSIN], the IC50 was determined as 4.7 µg/mL (≈ 15.5 µM). In the case of `Cc1cc(O)c2c(c1)C(=O)c1cccc(O)c1C2=O` [CHRYSOPHANOL], the IC50 was > 100 µg/mL.

As for `Cc1cc(O)c2c(c1)C(=O)c1cc(O)cc(O)c1C2=O` [EMODIN], the IC50 was > 100 µg/mL.

On to `O=C1c2c(O)cc(O)cc2OC1(O)Cc1ccc(O)cc1` (stereo unspecified) [MAESOPSIN], for which the IC50 came to 5.3 µg/mL (≈ 18.4 µM). `COc1cc(O)c2c(c1)C(=O)c1cc(C)cc(O)c1C2=O` [PHYSCION]: the IC50 is > 100 µg/mL.

Take `Cc1cc(O)c2c(c1)C(=O)c1cccc(O[C@@H]3O[C@H](CO)[C@@H](O)[C@H](O)[C@H]3O)c1C2=O` [PULMATIN]: the IC50 was > 100 µg/mL.
